Measured values from patent publication US5892064A, “Chemiluminescent dialkyl-substituted 1,2-dioxetanes, methods of synthesis and use” (Lumigen, Inc., priority 1997, dated 1999).

What was measured:
[1] = Thermal and hydrolytic stability of dioxetane in aqueous buffer solution; assay type: physicochemical; conditions: 0.33 mM, 1 mg/mL Enhancer A, 0.2M buffer pH 9.6, 37° C. versus room temperature, 5 days
Procedure: The thermal and hydrolytic stability of a 0.33 mM solution of dioxetane 2f containing 1 mg/mL of Enhancer A in 0.2M 2-amino-2-methyl-1-propanol buffer, pH 9.6 and 0.88 mM Mg^+2 was determined at 37° C. Solutions of the dioxetane were maintained at room temperature and 37° C. for 5 days. To each of 12 wells in a 96-well microplate was added 100 μL of each solution. The plate was incubated at 37° C. and chemiluminescence emission initiated by addition of 10 μL of solutions containing 1.1×10^-15 mol of AP. Light intensities were integrated for 2.5 hours. Stability of the dioxetane was assessed by comparing the average light yield of the sample incubated at 37° C. to the solution held at room temperature. A decrease in the amount of light emitted indicates decomposition of the dioxetane during the incubation period.

[2] = literature, cited from earlier work
[3] = Thermal stability of dioxetanes: first order decay of chemiluminescence of dilute solutions in xylene at several temperatures; assay type: physicochemical; conditions: for Ea: activation energy for thermal decomposition; for Ea / log A: dilute solutions in xylene; for t1/2: thermal decomposition (Table 4; temperature not given); for t1/2 25° C. / log A: thermal decomposition
Procedure: (§1) Chemiluminescence intensities and rate measurements were performed using either a Turner Designs (Sunnyvale, Calif.) model TD-20e luminometer or a luminometer built in house (Black Box) which uses a photon counting photomultiplier. Temperature control of samples analyzed in the luminometers was achieved by means of a circulating bath connected to the instrument. Quantitative measurement of light intensities on the Turner luminometer was extended beyond the 10^4 linear range of the detector by a neutral density filter. Data collection was controlled by an Apple MacIntosh SE/30 computer using the LUMISOFT data reduction program (Lumigen, Inc., Southfield, Mich.).
Activation energies for thermal decomposition of dioxetanes 2c, h and i were determined by measuring the first order rate constant k for decay of chemiluminescence of dilute solutions in xylene at several temperatures.

[4] = Fluoride-triggered (TBAF) chemiluminescent decomposition of dioxetanes in DMSO; assay type: physicochemical; conditions: for rates of fluoride-triggered decomposition compared / t1/2 trig.: 10 μL of 10^-6 M dioxetane with 50 μL of 1M TBAF in DMSO; for t1/2: [F-] 1M, DMSO; for Rate acceleration: fluoride-triggered versus thermal decomposition
Procedure: as §1
Stock solutions of dioxetanes 2c, 2e, 2g and for comparison, 4-(3-t-butyldimethylsilyloxyphenyl)-4-methoxyspiro [1,2-dioxetane-3,2'-tricyclo[3.3.1.1^3,7 ]decane] (2j), (preparation described in U.S. Pat. No. 4,962,192) were made to a concentration of 10^-6 M in DMSO. Serial dilutions in DMSO were made as required. Ten μL aliquots were triggered in 7×50 mm polypropylene tubes in a Turner Designs TD-20e luminometer by injection of 50 μL of a solution of tetra-n-butylammonium fluoride (TBAF) in DMSO (1M-10^-4 M) in the appropriate solvent, typically DMSO. Light intensity was attenuated when needed by a neutral density filter. All experiments were conducted at ambient temperature. Peak light intensity and decay rate diminished as the fluoride concentration was decreased. At the lowest concentration of fluoride, decay kinetics were not cleanly first order.
The half lives for decay were essentially independent of dioxetane concentration.
The rates of fluoride-triggered decomposition of dioxetanes 2c, h, i and j were compared in DMSO under identical conditions, i.e. 10 μL aliquot of a 10^-6 M solution of dioxetane with 50 μL of 1M TBAF in DMSO. […]

Row | Structure (SMILES) | thermal and hydrolytic stability in aqueous solution [1] | half life (t1/2) at 25° C. ([2]; 25° C.) | activation energy for decomposition [2] [kcal/mol] | Ea [3] [kcal/mol] | t1/2 [3] [yr] | t1/2 25° C. [3] [yr] | log A [3] | rates of fluoride-triggered decomposition compared [4] | t1/2 trig. [4] [s] | t1/2 ([4]; [Dioxetane 2h] 10^-6 M) [s] | t1/2 ([4]; [Dioxetane 2h] 10^-7 M) [s] | t1/2 ([4]; [Dioxetane 2h] 10^-8 M) [s] | t1/2 ([4]; [Dioxetane 2h] 10^-9 M) [s] | Rate acceleration [4]
1 | COC1(c2cccc(OP(=O)(O)O)c2)OOC1(C(C)C)C(C)C (centres unmarked) [Dioxetane 2f] | stable under these conditions | – | – | – | – | – | – | – | – | – | – | – | – | –
2 | C1C2CC3CC1CC(C2)C31OOC12C1CC3CC(C1)CC2C3 (centres unmarked) | – | several years | 37 | – | – | – | – | – | – | – | – | – | – | –
3 | COC1(c2cccc(O[Si](C)(C)C(C)(C)C)c2)OOC1(C1CCCCC1)C1CCCCC1 (centres unmarked) [Dioxetane 2h] | – | – | – | 29.4 | 1.7 | 1.7 | 13.7 | essentially the same rate | 7 | 7.2 | 6.2 | 6.2 | 6.7 | 7.0 × 10^6
4 | COC1(c2cccc(O)c2)OOC1(C1CCCCC1)C1CCCCC1 (centres unmarked) [Dioxetane 2i] | – | – | – | 28.5 | 1.1 | 1.1 | 13.2 | essentially the same rate | 6 | – | – | – | – | 5.7 × 10^6
5 | COC1(c2cccc(O[Si](C)(C)C(C)(C)C)c2)OOC12C1CC3CC(C1)CC2C3 (centres unmarked) [Dioxetane 2j] | – | – | – | – | 3.8 | – | – | essentially the same rate | 7 | – | – | – | – | 1.4 × 10^7
6 | COC1(c2cccc(OC(C)=O)c2)OOC1(C(C)C)C(C)C (centres unmarked) [Dioxetane 2c] | – | – | – | 28.1 | 1.2 | 1.2 | 12.85 | essentially the same rate | 7 | – | – | – | – | 5.5 × 10^6
